Patent publication US20240361317A1, “PROBES BASED ON VOLATILE ORGANIC COMPOUNDS AND USES THEREOF FOR THE DIAGNOSIS AND PROGNOSIS OF PATHOLOGICAL CONDITIONS” (Centre National de la Recherche Scientifique, priority 2021, published 2024)
Each block holds one compound with its values, some of them ahead of it.

How the values were obtained:
[1] = biological target: T1, β-D-galactosidase (Homo sapiens, UniProt P16278); assay: Plasma protocol: labeled ethanol released in headspace of plasma after adding probe; type: biochemical; details: for discernment between healthy patients and cancer patients: cocktail of 4 probes, plasma of breast and lung cancer patients vs 4 healthy
T1 construct: from tissue; host or cells: human blood plasma
T1 sequence (P16278 29-677): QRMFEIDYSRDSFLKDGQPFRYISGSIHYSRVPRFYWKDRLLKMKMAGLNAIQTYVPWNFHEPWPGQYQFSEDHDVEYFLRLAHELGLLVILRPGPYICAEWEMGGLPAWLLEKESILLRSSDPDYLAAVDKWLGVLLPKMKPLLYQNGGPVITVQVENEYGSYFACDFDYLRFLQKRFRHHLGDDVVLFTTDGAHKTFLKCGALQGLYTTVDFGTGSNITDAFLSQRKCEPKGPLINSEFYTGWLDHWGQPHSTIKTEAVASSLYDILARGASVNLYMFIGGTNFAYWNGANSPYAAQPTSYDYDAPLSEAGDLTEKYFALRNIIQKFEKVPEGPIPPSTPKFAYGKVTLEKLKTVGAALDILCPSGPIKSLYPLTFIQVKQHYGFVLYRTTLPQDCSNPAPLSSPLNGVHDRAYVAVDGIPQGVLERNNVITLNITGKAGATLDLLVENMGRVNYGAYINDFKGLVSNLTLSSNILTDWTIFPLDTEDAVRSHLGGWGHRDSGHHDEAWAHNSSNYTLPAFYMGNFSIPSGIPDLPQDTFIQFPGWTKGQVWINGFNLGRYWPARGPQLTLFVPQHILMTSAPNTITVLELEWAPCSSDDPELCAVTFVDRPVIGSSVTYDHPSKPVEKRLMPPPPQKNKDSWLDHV
Description: (§1) The plasma (approximately […]) is extracted and stored at −20° C. until analysis. An aliquot of 25 μL of plasma is sampled and inserted into a […] with an insert. This biological sample is added to 50 μL of acetate buffer solution (pH 5), protease inhibitor (1×) and 25 μL probe D5-ethyl-β-D-glucuronide at […]. After hermetic closure and agitation to the vortex of the vial, an SPME (SPME in semi-polar phase of the Car/PDMS, 1 cm long and 75 μm thick type with a 24 ga needle; Supelco) of the gas phase above the sample of a duration of 30 mi is carried out after 2 h, 4 h and 7 h of reaction. Each kinetic point requires a vial reaction, and is carried out in duplicate. The VOCs trapped on the SPME fiber are then analyzed by G-TQMS. GC-TMS detection of the ethanol isotopes (thus including ethanol-D5) is carried out with gas chromatography coupled to a triple quadrupole equipped with an E1 source (TSQ 9000, Thermo Fisher Scientific). The system is controlled by the software TSQ 9000 and the results are analyzed with the Xcalibur software (Thermo Fisher Scientific).
(§2) In order to verify the diagnostic efficacy of this cocktail, it was tested on samples of plasma taken from 4 patients suffering from breast cancer and 3 patients with lung cancer. These patients were diagnosed, but had at the time of sampling not yet received treatment suited to their pathological condition.
After adding the 4 probes (according to the above protocol), the quantity of the 4 isotopes of the ethanol released above the samples of the patients was measured over time. The responses of each isotope were compared with those obtained when the cocktail was added to plasmas of 4 healthy patients. An experimental blank was also carried out each day of analysis. […]
(§3) According to the plasma protocol described above, the probes were used to detect the six enzymatic activities in these samples. […] The VOCs trapped on the SPME fiber are then analyzed by GC-TQMS according to the parameters defined in Tables 4 and 5. […]

[2] = system: KB tumors (tumor xenograft, tumor cells of the nasopharynx KB); assay: In vivo test of cocktail of 4 probes: ethanol isotopes exhaled after i.v. injection; design: species or system mouse; details: 15 days after implantation; 1 h after i.v. injection
Description: In the context of this study, the quantity of 4 expired isotopes by mouse models carrying a tumor xenograft (tumor cells of the nasopharynx KB; n=6) was compared to that exhaled by healthy animals (n=6) after i.v. injection of the cocktail.
The concentration of the 4 probes to be injected was determined beforehand according to a precise experimental plan having the objective of determining the amount of each probe inducing a minimum ethanol response in healthy animals (signal reaching a low or even zero basal level). In this context, the healthy animals received increasing doses of the 4 probes ([…] at 100 μg·kg^−1). The animals were then placed in a hermetic cage for 1 h. The amount of each ethanol isotope present in the breath of the animals was then measured for 30 min via an SPME sample, then a GC-TQMS analysis.
Once the i.v. doses are set, the cocktail was injected into healthy mice and diseased mice after 12 and then 15 days of implantation of the xenograft. The amount of the ethanol isotopes exhaled by the animals was measured 1 h after injection of the cocktail (FIG. 10). A negative control on two mice (healthy and diseased) was carried out. This control consisted of measuring the quantity of 4 isotopes of ethanol in the air surrounding the mice which had not received the cocktail. Ethanol-D5, ethanol-D4 and ethanol-^13CD5 were not detected. […]

[3] = system: N-acetyl-glucosaminidase; assay: Plasma protocol: labeled ethanol released in headspace of plasma after adding probe; type: biochemical, human
Description: as §1, §2
(§4) After adding the 4 probes (according to the above protocol), the quantity of the 4 isotopes of the ethanol released above the samples of the patients was measured over time. The responses of each isotope were compared with those obtained when the cocktail was added to plasmas of 4 healthy patients. An experimental blank was also carried out each day of analysis. These blanks correspond to negative controls wherein the cocktail was added, whereas none of the 4 enzymes was present therein (FIG. 9).
(§5) According to the plasma protocol described above, the probes were used to detect the six enzymatic activities in these samples. To summarize, an aliquot of 25 μL of plasma will be sampled and inserted into a 2 mL vial with an insert. This biological sample was added from 61.4 μL buffer solution (pH 5), 3.6 μL of protease inhibitor (1×) and 10 μL of one or the other of the cocktails. After hermetic closure and agitation to the vortex of the vial, an SPME (SPME in semi-polar phase of the Car/PDMS, 1 cm long and 75 μm thick type with a 24 ga needle, Supelco) of the gas phase above the sample of a duration of 30 min will be carried out after 2 h, 4 h and 7 h of reaction. Each kinetic point requires a vial reaction, and was carried out in duplicate. The VOCs trapped on the SPME fiber are then analyzed by GC-TQMS according to the parameters defined in Tables 4 and 5. […]

[4] = biological target: β-glucuronidase (Escherichia coli, UniProt P05804); assay: Specificity study: hydrolysis of probes by the enzyme; type: biochemical
Chain of β-glucuronidase (Escherichia coli, UniProt P05804) (P05804 whole entry, the tested form may be a part): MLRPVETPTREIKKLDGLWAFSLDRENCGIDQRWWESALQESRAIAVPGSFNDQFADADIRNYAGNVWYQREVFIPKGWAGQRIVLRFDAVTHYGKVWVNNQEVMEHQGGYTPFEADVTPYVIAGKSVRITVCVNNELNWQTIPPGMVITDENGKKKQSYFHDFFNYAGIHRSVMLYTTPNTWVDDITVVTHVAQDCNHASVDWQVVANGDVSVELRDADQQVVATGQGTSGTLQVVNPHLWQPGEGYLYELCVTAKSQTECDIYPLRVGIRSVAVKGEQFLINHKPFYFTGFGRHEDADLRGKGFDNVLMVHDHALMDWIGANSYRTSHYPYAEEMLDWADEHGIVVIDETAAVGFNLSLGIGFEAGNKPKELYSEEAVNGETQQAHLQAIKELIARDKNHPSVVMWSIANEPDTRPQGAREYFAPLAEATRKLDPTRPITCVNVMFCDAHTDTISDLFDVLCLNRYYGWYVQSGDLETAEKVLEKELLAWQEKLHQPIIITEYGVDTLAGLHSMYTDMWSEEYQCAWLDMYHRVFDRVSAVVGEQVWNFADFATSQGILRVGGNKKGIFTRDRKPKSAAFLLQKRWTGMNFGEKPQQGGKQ
Description: (§6) The detection performances of this compound in the presence of ethanol and ethanol-D5 were then verified. […] The detection ranges of ethanol-D5 and ethanol-^13C-D5 were then carried out under SPME sampling conditions developed for biological samples (30 min of sampling at 30° C.). The two isotopes were present in mixtures in solution. The limits of detection obtained are respectively […]. The SPME-GC-TQMS method therefore allows a sharp differentiation of the two isotopes according to their mass fragmentation. An experimental study was then carried out in order to evaluate the affinity of the D5-ethyl-β-D-glucuronide and ^13C-D5-ethyl-N-acetylglucosamine for their respective enzyme (β-glucuronidase and N-acetyl glucosaminidase). For this, the efficacy of hydrolysis of each of these enzymes was studied in the presence of their respective probe (FIG. 6) then in the presence of the substrate probe of its partner (FIG. 7). […] In the presence of the two substrates, each enzyme gives a signal only for the probe specific to it (FIG. 8).

[5] = system: N-acetyl glucosaminidase; assay: as above; type: biochemical
Description: as §6

[6] = biological target: T2, β-glucuronidase (Homo sapiens, UniProt P08236); assay: Plasma protocol: labeled ethanol released in headspace of plasma after adding probe; type: biochemical; details: Ethanol-D5; Cocktail 1; 5·10^−4/5·10^−5 mol·L^−1; Splitless
T2 construct: from tissue; host or cells: human blood plasma
T2 sequence (P08236 23-651): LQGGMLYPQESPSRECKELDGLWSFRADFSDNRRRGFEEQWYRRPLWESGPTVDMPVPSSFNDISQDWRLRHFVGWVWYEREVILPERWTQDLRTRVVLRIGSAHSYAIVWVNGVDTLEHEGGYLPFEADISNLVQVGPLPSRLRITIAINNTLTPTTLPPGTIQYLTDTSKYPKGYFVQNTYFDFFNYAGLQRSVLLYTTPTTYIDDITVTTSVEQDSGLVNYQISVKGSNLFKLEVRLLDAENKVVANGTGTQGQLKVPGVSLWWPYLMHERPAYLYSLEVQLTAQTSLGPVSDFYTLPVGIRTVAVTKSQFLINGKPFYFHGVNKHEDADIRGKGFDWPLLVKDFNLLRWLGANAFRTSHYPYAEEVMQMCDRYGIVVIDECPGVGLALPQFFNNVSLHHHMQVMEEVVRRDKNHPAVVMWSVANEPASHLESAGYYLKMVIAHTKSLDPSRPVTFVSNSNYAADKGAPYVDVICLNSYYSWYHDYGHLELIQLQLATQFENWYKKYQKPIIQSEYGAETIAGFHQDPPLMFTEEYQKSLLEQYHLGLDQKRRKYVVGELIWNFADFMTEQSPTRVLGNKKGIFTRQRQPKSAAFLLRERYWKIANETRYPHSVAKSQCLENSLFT
Description: as §1
Blood samples were taken by the caregiver associated with the oncological service, then collected and pretreated with the CIC. This study included samples of plasma taken from 11 patients suffering from breast cancer and 11 patients suffering from lung cancer.
These patients were diagnosed, but had at the time of sampling not yet received treatment. Their response was compared to that obtained from the plasma of 4 healthy patients. The results were compared to an experimental blank wherein the probe was added, but the enzyme was not present (FIG. 3). […]
After adding the 4 probes (according to the above protocol), the quantity of the 4 isotopes of the ethanol released above the samples of the patients was measured over time. […]
as §3

[7] = system: α-L-fucosidase; assay: as above; type: biochemical, human
Description: as §1, §2, §4, §5

[8] = biological target: T2, β-glucuronidase; assay: Reference method: hydrolysis of para-nitrophenol glucuronide, UV detection at 400 nm, on patient plasma; type: biochemical; details: plasma of cancer and healthy patients
Excerpt: The limit of detection of the enzyme with the probe is between […] (signal to noise 9) and […] (signal to noise 37), which leads to a minimum quantity of detectable enzyme equal to 1.10^−18 mol. This LOD is 100 times lower than the threshold value obtained according to the reference detection method of this same enzyme (Li et al., 2018, Biotechnology Letters, 40, 11 1-118; Xiao et al., 2020, RSC Advances, 10, 22966). This method corresponds to the hydrolysis of para-nitrophenol glucuronide. It was carried out in acetate buffer […], followed by UV detection at 400 nm of the para-nitrophenol (FIG. 2).
Finally, these same plasma samples were tested with the reference method targeting […] (UV detection in the presence of para-nitrophenol; protocol described page 5).

Compound: [2H]C([2H])(C)O[C@@H]1O[C@H](CO)[C@H](O)[C@H](O)[C@H]1O [D2-ethyl-β-D-galactopyranoside]
discernment between healthy patients and cancer patients [1]: does not make it possible to discern healthy patients from cancer patients
discernment between healthy patients and cancer patients ([1]; listed as D2-ethyl-β-d-galactopyranoside): does not make it possible to differentiate healthy patients from breast cancer or lung cancer patients
activation of probe in the microenvironment of KB (nasopharyngeal) tumors, release of ethanol isotope in exhaled air [2]: activated

Compound: ^13C-D5-ethyl-N-acetylglucosamide [^13C-D5-ethyl-N-acetylglucosamine]
discernment between healthy patients and cancer patients ([3]; cocktail of 4 probes, plasma of breast and lung cancer patients vs 4 healthy): allow clear discernment between healthy patients and cancer patients
hydrolysis of probe by β-glucuronidase (labeled ethanol signal) [4]: does not hydrolysis
hydrolysis of probe by N-acetyl glucosaminidase (labeled ethanol signal) [5]: has hydrolyzed its own probe

Compound: CCC[C@@H]1C[C@H](C(C)C)[C@@H](C)[C@H](C)[C@H]1C
Plasma response range (u.a.) [6]: 1000-35000 u.a.

Plasma response range (u.a.) ([7]; Ethanol-D4, Cocktail 3, 10^−3/10^−4 mol·L^−1, Splitless): 5000-230000 u.a.
Compound: CCC[C@@H]1C[C@H](C)[C@@H](C)[C@@H](C)[C@@H]1C

Compound: O=C(O)[C@H]1O[C@@H](Oc2ccc([N+](=O)[O-])cc2)[C@H](O)[C@@H](O)[C@@H]1O [para-nitrophenol glucuronide]
detection of the enzyme in the same plasma samples by the reference method [8]: not detected in any of the samples

Plasma response range (u.a.) ([3]; Ethanol-13CD5, Cocktail 2, 10^−3/10^−4 mol·L^−1, Split 1:15): 10000-300000 u.a.
Compound: C=C(C)C[C@@H]1[C@@H](CCC)C[C@H](CC)[C@@H](C)[C@@H]1C

Compound: [2H]C(O[C@@H]1O[C@@H](C)[C@@H](O)[C@@H](O)[C@@H]1O)C([2H])([2H])[2H] (stereo partly drawn) [D4-ethyl-1-α-L-fucopyranoside]
discernment between healthy patients and cancer patients ([7]; cocktail of 4 probes, plasma of breast and lung cancer patients vs healthy): allow clear discernment between healthy patients and cancer patients

Plasma response range (u.a.) ([1]; Ethanol-D2, Cocktail 1, 10^−3/10^−4 mol·L^−1, Splitless): 2000-16000 u.a.
Compound: CCC[C@@H]1C[C@H](CC)[C@H](C)[C@H](C)[C@H]1C
